Data on 5 compounds can be found in patent US10227347B2, “Purinyl-N-hydroxyl pyrimidine formamide derivative, preparation methods and uses thereof” (Guizhou Bailing Group Pharmaceutical CO., LTD., priority 2015, dated 2019).

For one assay, the target named is T1, PI3Kα (Homo sapiens, UniProt P42336).
T1 construct: purchased Invitrogen PV4788
The assay can be described thus: PI3Kα activity inhibition (Kinase-Glo). The class given is biochemical. In a few lines:
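Kinase-Glo luminescence read-out of remaining ATP after PI3K reaction with PIP2 and ATP substrates in 50 mM HEPES pH 7.5, 3 mM MgCl2, 1 mM EGTA, 100 mM NaCl, 0.03% CHAPS, 2 mM DTT. Incubated at ambient temperature, 1 h for PI3Kα, 2 h for PI3Kδ. IC50 from four-parameter fit of % inhibition versus concentration.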

Assay [1] relates to acetylated histone H3 (Ac-H3) in A2780s cells. The assay can be described thus: Induction of histone H3 acetylation in A2780s cells (cytoblot). The class given is cell-based. Conditions: Homo sapiens, 6 h treatment. On the procedure:
Specific operation: After the treatment, washing each well once with 50-100 μl of cold TBS buffer [with the composition as 20 mM Tris (trismetyl aminomethane), pH7.5] and fixing it with 100 μL of 4% pre-cooled paraformaldehyde at 4° C. for 1 h; after paraformaldehyde is washed off, adding 50 μL of pre-cooled methyl alcohol in each well and evenly spreading at 4° C. for 5 min; after methyl alcohol is washed off, washing it once with the TBS buffer containing 3% skim milk powder and adding 50 μL of antibody fluid, oscillating it slightly at 4° C. and incubating overnight. For determination of Ac—H3, the antibody fluid is prepared by diluting Ac—H3 antibody and horseradish peroxide coupled secondary antibody to a same system with the TBS buffer containing 3% skim milk powder (Ac—H3 antibody is purchased from Santa Cruz Company and diluted at a ratio of 1:100; horseradish peroxide coupled secondary antibody is purchased from Jackson Company and diluted at a ratio of 1:2000); for determination of acetylated Ac-α-tubulin, the antibody fluid is prepared by diluting Ac-α-tubulin antibody and horseradish peroxide coupled secondary antibody to a same system with the TBS buffer containing 3% skim milk powder (Ac-α-tubulin antibody is purchased from Santa Cruz Company and diluted at a ratio of 1:100; horseradish peroxide coupled secondary antibody is purchased from Jackson Company and diluted at a ratio of 1:2000).
Calculating the value of IC50 as per the formula: Y=background data+(top data−background data)/(1+10^((Log EC50−X)*rate of curve)) Where, Y refers to the activating rate (%) and X refers to the compound concentration.

A further assay concerns the target T2, HDAC4 (Homo sapiens, UniProt P56524).
T2 construct: purchased BPS Bioscience 50004
Briefly: HDAC4 enzyme inhibition (Lys-Ac-AMC). Type of assay: biochemical. The settings on record: Table 4, graded. On the procedure:
(§1) Determining the inhibition capability of HDAC through the substrate method of fluorophore coupled acetylized peptide fragment (Lys-Ac-AMC). HDAC2-11 proteins of subtypes are purchased from BPS Bioscience Company with the Art. […] The reaction buffer system is a modified Tris buffer (pH7.0). The small molecule compounds are prepared and dissolved with 100% DMSO. […] Adding the compound into the reaction wells of the 384 well plate at the designed concentration, then adding 15 μL HDAC enzyme solution into the reaction wells (adding 15 μL blank buffer into the control well 0) for incubation under ambient temperature for 15 min; then adding 10 μL substrate solution to start reaction.
(§2) Analyzing the result data with the software GraphPad Prism and calculating the value of IC50 as per the formula: Y=background data+(top data−background data)/(1+10^((Log IC50−X)*rate of curve)). Where, Y refers to the inhibition ratio (%) and X refers to the compound concentration.

The next assay has as its target T3, HDAC5 (Homo sapiens, UniProt Q9UQL6).
T3 construct: purchased BPS Bioscience 50005
Briefly: HDAC5 enzyme inhibition (Lys-Ac-AMC). Conditions: Table 4, graded. The class given is biochemical. How it is done: as §1, §2

The next assay deals with T4, HDAC9 (Homo sapiens, UniProt Q9UKV0).
T4 construct: purchased BPS Bioscience 50009
Briefly: HDAC9 enzyme inhibition (Lys-Ac-AMC). The class given is biochemical. The settings on record: Table 4, graded. On the procedure: as §1, §2

The target in the next assay is T5, HDAC10 (Homo sapiens, UniProt Q969S8).
T5 construct: purchased BPS Bioscience 50060
T5 sequence (Q969S8 1-669): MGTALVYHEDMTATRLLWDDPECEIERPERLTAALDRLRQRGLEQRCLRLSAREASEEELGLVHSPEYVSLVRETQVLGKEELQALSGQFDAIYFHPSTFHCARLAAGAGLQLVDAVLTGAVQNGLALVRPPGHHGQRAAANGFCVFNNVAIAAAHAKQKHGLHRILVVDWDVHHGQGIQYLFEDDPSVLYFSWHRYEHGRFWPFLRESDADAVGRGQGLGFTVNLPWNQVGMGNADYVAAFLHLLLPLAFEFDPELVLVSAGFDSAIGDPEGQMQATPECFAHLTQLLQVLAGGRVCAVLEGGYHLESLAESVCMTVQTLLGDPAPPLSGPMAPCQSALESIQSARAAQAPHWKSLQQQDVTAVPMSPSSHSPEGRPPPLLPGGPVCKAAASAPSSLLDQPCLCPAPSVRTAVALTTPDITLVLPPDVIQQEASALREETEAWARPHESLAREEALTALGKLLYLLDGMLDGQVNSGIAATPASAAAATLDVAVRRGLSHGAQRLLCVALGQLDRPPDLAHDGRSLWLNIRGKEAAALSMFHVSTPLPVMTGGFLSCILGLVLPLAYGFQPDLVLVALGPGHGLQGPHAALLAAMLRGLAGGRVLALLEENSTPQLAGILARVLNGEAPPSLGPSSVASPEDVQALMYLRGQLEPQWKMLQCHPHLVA
Briefly: HDAC10 enzyme inhibition (Lys-Ac-AMC). The class given is biochemical. Conditions: Table 4, graded. On the procedure:
as §1, §2

The mark [2] stands for this setting: Table 1, graded, read-out: PI3Kα IC50.
The mark [3] stands for this setting: Table 4, graded, read-out: PI3Kα IC50.

Like-named read-outs stand apart in the source and are kept apart here.

T3 sequence (Q9UQL6 656-1122 limits assumed): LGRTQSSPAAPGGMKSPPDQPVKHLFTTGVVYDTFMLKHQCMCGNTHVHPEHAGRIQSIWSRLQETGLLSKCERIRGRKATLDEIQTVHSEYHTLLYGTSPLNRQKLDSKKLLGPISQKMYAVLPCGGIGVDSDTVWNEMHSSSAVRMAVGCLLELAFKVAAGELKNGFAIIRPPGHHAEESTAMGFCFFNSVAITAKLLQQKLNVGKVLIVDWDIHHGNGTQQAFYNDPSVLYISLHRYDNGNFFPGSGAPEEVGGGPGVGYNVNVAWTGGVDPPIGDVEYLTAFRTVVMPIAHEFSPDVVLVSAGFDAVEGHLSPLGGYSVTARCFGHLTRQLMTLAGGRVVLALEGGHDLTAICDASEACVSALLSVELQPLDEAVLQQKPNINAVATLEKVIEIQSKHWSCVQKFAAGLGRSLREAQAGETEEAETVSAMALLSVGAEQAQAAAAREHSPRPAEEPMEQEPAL
T2 sequence (P56524 627-1084 limits assumed): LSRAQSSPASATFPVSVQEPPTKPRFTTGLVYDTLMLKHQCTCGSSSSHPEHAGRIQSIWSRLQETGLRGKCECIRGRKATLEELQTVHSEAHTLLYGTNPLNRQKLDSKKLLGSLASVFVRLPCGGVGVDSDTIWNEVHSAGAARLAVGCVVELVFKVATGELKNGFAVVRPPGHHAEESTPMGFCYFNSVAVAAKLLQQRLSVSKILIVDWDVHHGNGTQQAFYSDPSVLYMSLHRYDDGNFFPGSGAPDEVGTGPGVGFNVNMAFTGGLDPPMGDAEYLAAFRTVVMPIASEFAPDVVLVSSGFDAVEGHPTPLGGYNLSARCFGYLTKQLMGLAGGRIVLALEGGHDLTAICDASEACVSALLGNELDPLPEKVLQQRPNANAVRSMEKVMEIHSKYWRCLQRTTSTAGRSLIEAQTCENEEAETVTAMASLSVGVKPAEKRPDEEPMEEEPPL
T4 sequence (Q9UKV0 1-1066 isoform Q9UKV0-5): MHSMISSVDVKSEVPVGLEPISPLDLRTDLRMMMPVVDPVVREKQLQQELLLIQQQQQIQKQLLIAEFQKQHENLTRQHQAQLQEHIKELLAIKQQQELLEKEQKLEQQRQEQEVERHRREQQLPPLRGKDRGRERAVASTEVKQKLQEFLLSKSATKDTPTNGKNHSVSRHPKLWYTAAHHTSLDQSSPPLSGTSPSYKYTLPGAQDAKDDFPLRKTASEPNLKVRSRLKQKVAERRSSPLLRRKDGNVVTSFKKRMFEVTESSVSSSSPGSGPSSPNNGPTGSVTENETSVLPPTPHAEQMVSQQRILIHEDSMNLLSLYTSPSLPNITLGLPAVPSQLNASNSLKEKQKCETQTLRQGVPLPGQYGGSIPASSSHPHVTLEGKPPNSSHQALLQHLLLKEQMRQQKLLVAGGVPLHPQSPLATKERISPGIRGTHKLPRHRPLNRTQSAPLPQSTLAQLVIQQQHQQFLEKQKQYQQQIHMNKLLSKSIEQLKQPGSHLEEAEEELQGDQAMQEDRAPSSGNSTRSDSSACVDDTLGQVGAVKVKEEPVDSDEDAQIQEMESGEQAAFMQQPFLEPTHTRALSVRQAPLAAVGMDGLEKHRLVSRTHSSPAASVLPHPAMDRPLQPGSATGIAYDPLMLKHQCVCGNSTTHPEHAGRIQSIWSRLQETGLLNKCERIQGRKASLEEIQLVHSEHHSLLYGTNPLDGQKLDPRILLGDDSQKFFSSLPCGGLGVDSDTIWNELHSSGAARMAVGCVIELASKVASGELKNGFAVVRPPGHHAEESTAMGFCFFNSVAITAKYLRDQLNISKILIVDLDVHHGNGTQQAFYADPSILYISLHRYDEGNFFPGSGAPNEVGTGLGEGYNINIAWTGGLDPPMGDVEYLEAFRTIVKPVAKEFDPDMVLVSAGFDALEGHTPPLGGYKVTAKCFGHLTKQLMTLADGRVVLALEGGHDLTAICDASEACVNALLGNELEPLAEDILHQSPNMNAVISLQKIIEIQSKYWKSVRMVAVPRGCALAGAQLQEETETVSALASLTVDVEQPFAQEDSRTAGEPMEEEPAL
T1 sequence (P42336 whole entry, species assumed): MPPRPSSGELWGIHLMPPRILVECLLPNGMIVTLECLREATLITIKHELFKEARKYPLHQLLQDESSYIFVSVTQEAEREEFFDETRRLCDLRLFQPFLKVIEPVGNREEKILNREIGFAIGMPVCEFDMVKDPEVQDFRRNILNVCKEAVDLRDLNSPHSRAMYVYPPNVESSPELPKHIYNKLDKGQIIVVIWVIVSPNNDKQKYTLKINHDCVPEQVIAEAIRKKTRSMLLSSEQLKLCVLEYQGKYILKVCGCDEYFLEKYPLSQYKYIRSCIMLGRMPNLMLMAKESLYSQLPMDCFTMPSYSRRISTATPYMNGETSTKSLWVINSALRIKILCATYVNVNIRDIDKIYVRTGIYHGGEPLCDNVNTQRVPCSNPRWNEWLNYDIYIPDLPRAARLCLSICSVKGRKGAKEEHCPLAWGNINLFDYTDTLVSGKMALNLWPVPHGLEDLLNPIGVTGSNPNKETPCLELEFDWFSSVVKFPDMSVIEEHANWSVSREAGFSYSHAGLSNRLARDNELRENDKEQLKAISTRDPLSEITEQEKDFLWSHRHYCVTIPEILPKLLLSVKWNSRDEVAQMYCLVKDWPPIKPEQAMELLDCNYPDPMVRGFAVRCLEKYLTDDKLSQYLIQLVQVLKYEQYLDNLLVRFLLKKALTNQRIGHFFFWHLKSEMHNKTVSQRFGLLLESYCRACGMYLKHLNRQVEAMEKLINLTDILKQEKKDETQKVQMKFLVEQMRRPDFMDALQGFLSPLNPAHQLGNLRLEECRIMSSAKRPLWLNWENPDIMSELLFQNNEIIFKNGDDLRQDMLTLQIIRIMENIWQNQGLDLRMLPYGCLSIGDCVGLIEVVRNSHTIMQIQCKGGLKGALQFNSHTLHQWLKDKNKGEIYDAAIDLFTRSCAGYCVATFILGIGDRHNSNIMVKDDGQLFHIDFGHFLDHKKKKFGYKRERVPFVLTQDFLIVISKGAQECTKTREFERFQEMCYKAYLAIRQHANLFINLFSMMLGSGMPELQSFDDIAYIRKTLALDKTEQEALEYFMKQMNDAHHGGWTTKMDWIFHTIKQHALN
T1 sequence (P27986 whole entry partner, species assumed): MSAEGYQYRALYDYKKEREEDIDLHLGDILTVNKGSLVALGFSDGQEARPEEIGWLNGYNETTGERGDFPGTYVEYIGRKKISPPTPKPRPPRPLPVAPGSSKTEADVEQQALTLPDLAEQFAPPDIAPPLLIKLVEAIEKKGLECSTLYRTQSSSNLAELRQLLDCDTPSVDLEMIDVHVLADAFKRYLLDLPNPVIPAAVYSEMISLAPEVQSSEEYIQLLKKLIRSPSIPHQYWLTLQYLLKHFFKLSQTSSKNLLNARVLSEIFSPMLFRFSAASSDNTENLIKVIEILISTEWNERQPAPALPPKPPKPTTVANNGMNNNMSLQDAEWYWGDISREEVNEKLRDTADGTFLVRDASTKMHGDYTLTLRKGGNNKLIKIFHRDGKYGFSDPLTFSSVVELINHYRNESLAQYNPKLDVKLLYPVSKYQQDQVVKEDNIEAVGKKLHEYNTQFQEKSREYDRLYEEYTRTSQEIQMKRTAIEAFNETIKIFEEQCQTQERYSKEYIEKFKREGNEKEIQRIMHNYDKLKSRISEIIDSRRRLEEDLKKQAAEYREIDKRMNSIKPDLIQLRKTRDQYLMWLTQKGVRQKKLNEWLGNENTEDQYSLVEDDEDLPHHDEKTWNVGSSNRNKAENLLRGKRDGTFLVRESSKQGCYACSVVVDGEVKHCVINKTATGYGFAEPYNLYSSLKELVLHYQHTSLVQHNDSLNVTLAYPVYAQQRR

Take `COc1ccc(-c2nc(N3CCOCC3)c3nc(CN(C)c4ncc(C(=O)NO)cn4)n(C)c3n2)cn1` [CLJ-1, 2-(((2-(6-methoxypyridine-3-yl)-9-methyl-6-morpholine-9H-purine-8-yl))methyl(methyl)amino)-N-hydroxyl pyrimidine-5-formamide]: the IC50 (usually the concentration that gives 50% inhibition) at PI3Kα (setting [2]) was in the range of 1000 to 10000 nM; at PI3Kα (setting [3]) it was 1000 to 10000 nM; on HDAC4, 1000 to 10000 nM; at HDAC5, 1000 to 10000 nM; on HDAC9 it was 1000 to 10000 nM; on HDAC10, 1 to 100 nM. For the same compound, the EC50 – broadly, the concentration that produces a half-maximal response – in assay [1] lay in the range of 100 to 200 nM.

`CN(Cc1nc2c(N3CCOCC3)nc(-c3cnc(N)nc3)nc2n1C)c1ncc(C(=O)NO)cn1` [CLJ-11, 2-(((2-(2-aminopyrimidine-5-yl)-9-methyl-6-morpholine-9H-purine-8-yl))methyl(methyl)amino)-N-hydroxyl pyrimidine-5-formamide]: the IC50 on PI3Kα (setting [2]) is below 100 nM; at PI3Kα (setting [3]), 1 to 100 nM; on PI3Kα (read-out: inhibition value IC50 to the activity of PI3Kα) it was below 100 nM; on HDAC4, 100 to 1000 nM; against HDAC5 it was 100 to 1000 nM; against HDAC9 it was 1000 to 10000 nM. This compound also showed an IC50 against HDAC10 of 1 to 100 nM. Moreover, the EC50 in assay [1] was 100 to 200 nM.

For `COc1ccc(-c2nc(N3CCOCC3)c3nc(CN(C)c4ncc(C(=O)NO)cn4)n(C)c3n2)cc1` [CLJ-29, 2-(((2-(4-methoxyphenyl)-9-methyl-6-morpholine-9H-purine-8-yl))methyl(methyl)amino)-N-hydroxyl pyrimidine-5-formamide], the IC50 on PI3Kα (setting [2]) is above 10000 nM; at PI3Kα (setting [3]), above 10000 nM; at HDAC4 it was 1000 to 10000 nM; on HDAC5, 1000 to 10000 nM; at HDAC9 it was 1000 to 10000 nM; against HDAC10 it was 1 to 100 nM. In assay [1], this compound returned an EC50 below 100 nM.

As for `CN(Cc1nc2c(N3CCOCC3)nc(-c3ccc(N)cc3)nc2n1C)c1ncc(C(=O)NO)cn1` [CLJ-44], the IC50 on PI3Kα (setting [2]) lay in the range of 1000 to 10000 nM; at PI3Kα (setting [3]), 1000 to 10000 nM; on HDAC4 it was 1000 to 10000 nM; at HDAC5, 100 to 1000 nM; on HDAC9, 1000 to 10000 nM; on HDAC10 it was 1 to 100 nM. The same compound yielded an EC50 in assay [1] of 100 to 200 nM.

On to `Cc1[nH]c2ccccc2c1CCNCc1ccc(/C=C/C(=O)NO)cc1` [LBH589, panobinostat, reference compound], for which the concentration for half-maximal inhibition (IC50) at PI3Kα (setting [3]) is above 10000 nM. Besides, in assay [1], the EC50 was 100 to 200 nM.
